Converted amounts (≈) assume the structure as drawn.
Assay: physchem

`O=C1CN(N=Cc2ccc([N+](=O)[O-])o2)C(=O)N1` [Macrocrystals, 1-[[[5-nitro-2-furanyl]methylene]amino]-2,4-imidazolidinedione] gave a solubility (0.01N HCl, simulated gastric fluid) of 140 µg/mL (≈ 588 µM), a solubility (0.1N HCl, simulated gastric fluid) of 140 µg/mL (≈ 588 µM) and a solubility (acetate buffer, pH 4.5, aqueous buffer) of 50 µg/mL (≈ 210 µM). For the same molecule, the solubility (phosphate buffer, pH 6.8, aqueous buffer) was 200 µg/mL (≈ 840 µM), the solubility (phosphate buffer, pH 7.5, aqueous buffer) was 620 µg/mL (≈ 2600 µM) and the solubility (water) was 160 µg/mL (≈ 672 µM).

Source: patent EP4285895A1, “NITROFURANTOIN ORAL DOSAGE FORM” (Adalvo Limited, priority 2022, dated 2023)
